The experiment has as its system cellular pERK in PC-9 cells (EGFR Ex19Del). In words: Potency assay: pERK (AlphaLISA SureFire Ultra p-ERK1/2) in PC-9 cells. The note with it: Homo sapiens, PC-9, 1 h, PC-9 cells (EGFR Ex19Del), 1 hour incubation, AlphaLISA SureFire Ultra p-ERK1/2; read-out: SOS1 pERK IC50. It counts as cell-based.
Take `C[C@@H](Nc1ncnc2c1cc(C1=CCOCC1)c(=O)n2C)c1cccc(C(F)(F)F)c1` [Example 5, (R)-6-(3,6-dihydro-2H-pyran-4-yl)-8-methyl-4-((1-(3-(trifluoromethyl)phenyl)ethyl)amino)pyrido[2,3-d]pyrimidin-7(8H)-one]: the IC50 was 0.134 µM.

Regarding `Cc1nc(N[C@H](C)c2cc(N)cc(C(F)(F)F)c2)c2cc(C3=CCNCC3)c(=O)n(C)c2n1` [Example 6, 4-[[(1R)-1-[3-amino-5-(trifluoromethyl)phenyl]ethyl]amino]-2,8-dimethyl-6-(1,2,3,6-tetrahydropyridin-4-yl)pyrido[2,3-d]pyrimidin-7-one], the IC50 was found to be 0.188 µM.

For the molecule `Cc1nc(N[C@H](C)c2cc(N)cc(C(F)(F)F)c2)c2cc(C3=CCOCC3)c(=O)n(C)c2n1` [Example 7, (R)-4-((1-(3-amino-5-(trifluoromethyl)phenyl)ethyl)amino)-6-(3,6-dihydro-2H-pyran-4-yl)-2,8-dimethylpyrido[2,3-d]pyrimidin-7(8H)-one], the IC50 is 0.0724 µM.

As to `Cc1nc(N[C@H](C)c2cc(N)cc(C(F)(F)F)c2)c2cc(C3CCNCC3)c(=O)[nH]c2n1` [Example 8, (R)-4-((1-(3-amino-5-(trifluoromethyl)phenyl)ethyl)amino)-2-methyl-6-(piperidin-4-yl)pyrido[2,3-d]pyrimidin-7(8H)-one], the IC50 was 2.13 µM.

With `C[C@@H](Nc1ncnc2c1cc(-c1ccccc1)c(=O)n2C)c1cccc(C(F)F)c1F` [Example 21-13], the IC50 was found to be 0.486 µM.

In the case of `C[C@@H](Nc1ncnc2c1cc(-c1ccncc1)c(=O)n2C)c1cccc(C(F)F)c1F` [Example 21-14], the IC50 worked out at 0.119 µM.

On to `C[C@@H](Nc1ncnc2c1cc(-c1cccnc1)c(=O)n2C)c1cccc(C(F)F)c1F` [Example 21-15], for which the IC50 stood at 0.212 µM.

In the case of `C[C@@H](Nc1ncnc2c1cc(C1=CC[S+]([O-])CC1)c(=O)n2C)c1cccc(C(F)F)c1F` (stereo partly drawn) [Example 22, 4-(((R)-1-(3-(difluoromethyl)-2-fluorophenyl)ethyl)amino)-8-methyl-6-(1-oxido-3,6-dihydro-2H-thiopyran-4-yl)pyrido[2,3-d]pyrimidin-7(8H)-one], the IC50 is 0.122 µM.

With `C[C@@H](Nc1ncnc2c1cc(C1=CCS(=N)(=O)CC1)c(=O)n2C)c1cccc(C(F)F)c1F` (stereo partly drawn) [Example 23, 4-(((R)-1-(3-(difluoromethyl)-2-fluorophenyl)ethyl)amino)-6-(1-imino-1-oxido-1,2,3,6-tetrahydro-1λ^6-thiopyran-4-yl)-8-methylpyrido[2,3-d]pyrimidin-7(8H)-one], the IC50 came out at 0.0485 µM.

As for `CN=S1(=O)CC=C(c2cc3c(N[C@H](C)c4cccc(C(F)F)c4F)ncnc3n(C)c2=O)CC1` (stereo partly drawn) [Example 24, 4-(((R)-1-(3-(difluoromethyl)-2-fluorophenyl)ethyl)amino)-8-methyl-6-(1-(methylimino)-1-oxido-1,2,3,6-tetrahydro-1λ^6-thiopyran-4-yl)pyrido[2,3-d]pyrimidin-7(8H)-one], the IC50 turned out to be 0.0614 µM.

For the molecule `C[C@@H](Nc1ncnc2c1cc(C1CC[S+]([O-])CC1)c(=O)n2C)c1cccc(C(F)F)c1F` (stereo partly drawn) [Example 25, (R)-4-((1-(3-(difluoromethyl)-2-fluorophenyl)ethyl)amino)-8-methyl-6-(1-oxidotetrahydro-2H-thiopyran-4-yl)pyrido[2,3-d]pyrimidin-7(8H)-one], the half-inhibitory concentration (IC50) was 0.122 µM.

Regarding `Cc1nc(N[C@H](C)c2cccc(C(F)F)c2F)c2cc(C(=O)N3CCOCC3)c(=O)n(C)c2n1` [Example 26, 4-{[(1R)-1-[3-(difluoromethyl)-2-fluorophenyl]ethyl]amino}-2,8-dimethyl-6-(morpholine-4-carbonyl)-7H,8H-pyrido[2,3-d]pyrimidin-7-one], the IC50 came to 0.388 µM.

On to `C[C@@H](Nc1ncnc2c1cc(C(=O)N1CC3(COC3)C1)c(=O)n2C)c1cccc(C(F)F)c1F` [Example 26-4], for which the IC50 worked out at 0.423 µM.

Consider `C[C@@H](Nc1ncnc2c1cc(C(=O)N1CC3COCC31)c(=O)n2C)c1cccc(C(F)F)c1F` (some centres unmarked) [Example 26-5], for which the IC50 came out at 0.396 µM.

As to `CCC1(O)CN(C(=O)c2cc3c(N[C@H](C)c4cccc(C(F)F)c4F)ncnc3n(C)c2=O)C1` [Example 26-8], the IC50 was 0.252 µM.

In the case of `C[C@@H](Nc1ncnc2c1cc(C(=O)N(C)c1cccnc1)c(=O)n2C)c1cccc(C(F)F)c1F` [Example 26-10], the IC50 came out at 2.09 µM.

For the molecule `C[C@@H](Nc1ncnc2c1cc(C(=O)N1CC3(CCCO3)C1)c(=O)n2C)c1cccc(C(F)F)c1F` [Example 26-13], the IC50 was determined as 1.13 µM.

Take `C[C@@H](Nc1ncnc2c1cc(C(=O)N1CCCC13COC3)c(=O)n2C)c1cccc(C(F)F)c1F` [Example 26-14]: the IC50 was 0.122 µM.

On to `C[C@@H](Nc1ncnc2c1cc(C(=O)N1CC3(CCOC3)C1)c(=O)n2C)c1cccc(C(F)F)c1F` [Example 26-15], for which the IC50 came out at 0.256 µM.

`C[C@@H](Nc1ncnc2c1cc(C(=O)N1CC[C@@H]3CO[C@@H]3C1)c(=O)n2C)c1cccc(C(F)F)c1F` [Example 26-16]: the IC50 stood at 0.729 µM.

`C[C@@H](Nc1ncnc2c1cc(C(=O)N1CC[C@@H]3CCO[C@@H]31)c(=O)n2C)c1cccc(C(F)F)c1F` [Example 26-17]: the half-inhibitory concentration (IC50) came to 0.195 µM.

For the molecule `C[C@@H](Nc1ncnc2c1cc(C(=O)N1CC3CCC1CO3)c(=O)n2C)c1cccc(C(F)F)c1F` (some centres unmarked) [Example 26-18], the IC50 came to 0.589 µM.

On to `C[C@@H](Nc1ncnc2c1cc(C(=O)N1CC3CCC(C1)O3)c(=O)n2C)c1cccc(C(F)F)c1F` [Example 26-19], for which the IC50 was 0.295 µM.

For `CC1CN(C(=O)c2cc3c(N[C@H](C)c4cccc(C(F)F)c4F)ncnc3n(C)c2=O)C(C)CO1` (some centres unmarked) [Example 26-23], the IC50 amounted to 0.275 µM.

Take `C[C@@H](Nc1ncnc2c1cc(C(=O)N1CCc3cnccc31)c(=O)n2C)c1cccc(C(F)F)c1F` [Example 26-27]: the IC50 stood at 0.803 µM.

In the case of `C[C@@H](Nc1ncnc2c1cc(C(=O)N1Cc3cccnc3C1)c(=O)n2C)c1cccc(C(F)F)c1F` [Example 26-28], the IC50 was found to be 0.766 µM.

In the case of `C[C@@H](Nc1ncnc2c1cc(C(=O)N1C3CCC1CN(C)C3)c(=O)n2C)c1cccc(C(F)F)c1F` [Example 26-32], the IC50 was found to be 0.216 µM.

Consider `C[C@@H](Nc1ncnc2c1cc(C(=O)N1CC3(CCOCC3)C1)c(=O)n2C)c1cccc(C(F)F)c1F` [Example 26-33], for which the 50% inhibitory concentration (IC50) came out at 0.152 µM.

With `C[C@@H](Nc1ncnc2c1cc(C(=O)N1CCCC13CCOC3)c(=O)n2C)c1cccc(C(F)F)c1F` (some centres unmarked) [Example 26-34], the IC50 came out at 0.122 µM.

`C[C@@H](Nc1ncnc2c1cc(C(=O)N1CCOCC13COC3)c(=O)n2C)c1cccc(C(F)F)c1F` [Example 26-35]: the IC50 stood at 0.193 µM.

Consider `COCC1COCCN1C(=O)c1cc2c(N[C@H](C)c3cccc(C(F)F)c3F)ncnc2n(C)c1=O` (some centres unmarked) [Example 26-37], for which the IC50 came to 0.747 µM.

Turning to `C[C@@H](Nc1ncnc2c1cc(C(=O)N1CCC[C@@H]1c1nnn[nH]1)c(=O)n2C)c1cccc(C(F)F)c1F` [Example 26-39], the IC50 is greater than 10 µM.

`CC(=O)N1CC2(C1)CN(C(=O)c1cc3c(N[C@H](C)c4cccc(C(F)F)c4F)ncnc3n(C)c1=O)C2` [Example 26-40]: the IC50 is 0.453 µM.

As for `C[C@@H](Nc1ncnc2c1cc(C(=O)N1CCCC13CCOCC3)c(=O)n2C)c1cccc(C(F)F)c1F` [Example 26-42], the IC50 is 0.194 µM.

For the molecule `C[C@@H](Nc1ncnc2c1cc(C(=O)N1CCN3CCOCC3C1)c(=O)n2C)c1cccc(C(F)F)c1F` (some centres unmarked) [Example 26-44], the IC50 is 0.401 µM.

As a reminder, the IC50 is the midpoint of a concentration-inhibition curve.
